Common to all, as to assay type: cell-based, human
One experiment deals with ANXA2. The experiment can be described thus: Secreted extracellular ANXA2 in hESC conditioned media by ELISA. The following applies: heparin treatment; control, ANXA2 siRNA and sPE hESCs. As for the experimental part: Protein extracts (2 μg/well) and conditioned media were analyzed by ELISA (R&D Systems, MN, USA). Inmobilized capture antibody specifically binds Annexin A2. After washing away un-bounded material, a biotinylated detection antibody specific for Annexin A2 is used to detect the bound Annexin A2, using a standard Streptavidin-HRP format. Three replicates were performed for each condition and the absorbance values were extrapolated to standard curve to establish human Annexin A2 concentration (pg/mL).
(§1) hESCs were cultured on monolayer in presence of 50 μg/mL and 100 μg/mL of heparin (Sigma, Madrid, during 15, 30 and 60 min to elaborate a dose-response experiment. Conditioned media from hESC cells were collected to analyze plasminogen levels, plasmin activity and metalloproteases production.

The test system of another experiment is MMP9. The experiment can be described thus: MMP9 level in hESC conditioned media by ELISA. Particulars: heparin treatment, all hESC conditions. How it is done:
(§2) MMP2 and MMP9 pro and active protein forms were evaluated by commercial ELISA analysis (RayBiotech, GA, USA). These assays employ an antibody specific for humans MMP-2 and MMP-9 coated on a 96-well plate. Standards and samples are pipette by duplicated into the wells and MMP-2 and MMP-9 present in a sample is bound to the wells by the immobilized antibody. Biotinylated anti-human MMP-2 and MMP-9 and HRP-conjugated streptavidin were added. TMB substrate solutions were added and absorbance at 450 nm was extrapolated to standard curve.
as §1
For orientation: An ELISA detects its analyte on a solid surface through an enzyme-linked reagent.

The test system of a further experiment is MMP2. In words: MMP2 level in hESC conditioned media by ELISA. The following applies: heparin treatment, all hESC conditions. As for the experimental part:
as §2, §1

In another experiment the test system is plasmin. The experiment can be described thus: Plasmin activity in hESC conditioned media, fluorimetric assay. Particulars: heparin 100 ug/mL. How it is done: Plasmin activity was measured in conditioned media by fluorimetric assay kit (Anaspec, CA, USA). It is based in a protease cleavage to plasmin substrate that generates a rhodamine 110 fluorophore which has a bright green fluorescence detected at 496 nm/520 nm (excitation/emission). Fifty microlitres of conditioned media was pre-incubated 10 min at room temperature and 50 uL of plasmin substrate solution was added into each well. Fluorescence signal was obtain for kinetic reading immediately start measuring and record data every 5 min for 60 min, with a total of 13 lectures. Each condition was evaluated in duplicate. The fluorescence was Interpol to concentration values using an Rh110 fluorescence reference standard.
as §1

The test system of another experiment is plasminogen. In words: Plasminogen level in hESC conditioned media by ELISA. The following applies: heparin 100 ug/mL; control siRNA, ANXA2 siRNA, non-PE and sPE decidualized hESCs (all conditions). As for the experimental part:
Plasminogen level was evaluated in conditioned media by ELISA kit (Cell Biolabs, CA, USA) following manufacturer's instructions. Average absorbance (Δ450 nm) in duplicate wells was calculated by subtracting the background from wells with media without hESC.
as §1

As for heparin, in the experiment with ANXA2, the “ANXA2 protein secreted to the culture media” value is “significant increase”. In addition, the MMP9 production result in the experiment on MMP9 is listed as “significant increase”. Also, the MMP2 production result in the experiment with MMP2 is listed as “significant increase”. Besides, the Plasmin activity entry in the experiment with plasmin (ANXA2 siRNA hESCs and hESCs from sPE) is “significant increase”. Also, in the experiment on plasmin (control siRNA, ANXA2 siRNA, non-PE and sPE decidualized hESCs (all conditions)), the “Plasmin activity in conditioned media” value is recorded as “significantly increased”. The “Plasminogen secretion into the conditioned media” value in the experiment with plasminogen is recorded as “significantly increased”.

Values taken from patent US20170097358A1, “EARLY DETECTION OF PREECLAMPSIA” (Igenomix S.L., priority 2014, published 2017).
